Experimental data published in PubChem BioAssay (NCI).
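GI50: concentration for 50% inhibition of growth. Definition used: TGI = concentration required for complete inhibition of growth.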

Assays:
Assay in all cases: NCI tumour cell line growth inhibition, 384-well format
786-0 renal = test system: 786-0 renal
A549 NSCLC = test system: A549 NSCLC
ACHN renal = test system: ACHN renal
BT-549 breast = test system: BT-549 breast
CAKI-1 renal = test system: CAKI-1 renal
COLO 205 colon = test system: COLO 205 colon
DU-145 prostate = test system: DU-145 prostate
EKVX NSCLC = test system: EKVX NSCLC
HCT-15 colon = test system: HCT-15 colon
HOP-62 NSCLC = test system: HOP-62 NSCLC
HOP-92 NSCLC = test system: HOP-92 NSCLC
HS 578T breast = test system: HS 578T breast
HT29 colon = test system: HT29 colon
K-562 leukemia = test system: K-562 leukemia
KM12 colon = test system: KM12 colon
LOX IMVI melanoma = test system: LOX IMVI melanoma
M14 melanoma = test system: M14 melanoma
MALME-3M melanoma = test system: MALME-3M melanoma
MCF7 breast = test system: MCF7 breast
MDA-MB-231 breast = test system: MDA-MB-231 breast
MDA-MB-435 melanoma = test system: MDA-MB-435 melanoma
MDA-MB-468 breast = test system: MDA-MB-468 breast
MOLT-4 leukemia = test system: MOLT-4 leukemia
NCI-H23 lung = test system: NCI-H23 lung
NCI-H322M lung = test system: NCI-H322M lung
NCI-H460 NSCLC = test system: NCI-H460 NSCLC
NCI/ADR-RES ovarian = test system: NCI/ADR-RES ovarian
OVCAR-3 ovarian = test system: OVCAR-3 ovarian
OVCAR-4 ovarian = test system: OVCAR-4 ovarian
OVCAR-8 ovarian = test system: OVCAR-8 ovarian
PC-3 prostate = test system: PC-3 prostate
RPMI-8226 leukemia = test system: RPMI-8226 leukemia
RXF 393 renal = test system: RXF 393 renal
SF-268 CNS = test system: SF-268 CNS
SF-539 CNS = test system: SF-539 CNS
SK-MEL-2 melanoma = test system: SK-MEL-2 melanoma
SK-MEL-28 melanoma = test system: SK-MEL-28 melanoma
SK-MEL-5 melanoma = test system: SK-MEL-5 melanoma
SK-OV-3 ovarian = test system: SK-OV-3 ovarian
SN12C renal = test system: SN12C renal
SNB-19 CNS = test system: SNB-19 CNS
SR leukemia = test system: SR leukemia
T-47D breast = test system: T-47D breast
TK-10 renal = test system: TK-10 renal
UACC-257 melanoma = test system: UACC-257 melanoma
UACC-62 melanoma = test system: UACC-62 melanoma
UO-31 renal = test system: UO-31 renal

C=CCN(/C=C1\C(=O)O[C@H](COC)[C@@]2(C)C1=C(O)C(=O)C1=C2[C@H](OC(C)=O)C[C@]2(C)C(=O)CC[C@@H]12)CC=C
GI50 ([…]-0 renal): 4.45 µM | TGI (786-0 renal): 28.5 µM | GI50 (A549 NSCLC): 1110 nM | TGI (A549 NSCLC): 27.6 µM | GI50 (ACHN renal): 4.71 µM | TGI (ACHN renal): > 100 µM | GI50 (BT-549 breast): 553 nM | TGI (BT-549 breast): 9.02 µM | GI50 (CAKI-1 renal): 2750 nM | TGI (CAKI-1 renal): > 100 µM | GI50 (COLO 205 colon): 793 nM | TGI (COLO 205 colon): 4.64 µM | GI50 (DU-145 prostate): 4.41 µM | TGI (DU-145 prostate): 59.7 µM | GI50 (EKVX NSCLC): 504 nM | TGI (EKVX NSCLC): 13.6 µM | GI50 (HCT-15 colon): 2980 nM | TGI (HCT-15 colon): 97.2 µM | GI50 (HOP-62 NSCLC): 10.3 µM | TGI (HOP-62 NSCLC): > 100 µM | GI50 (HOP-92 NSCLC): 2470 nM | TGI (HOP-92 NSCLC): 37.6 µM | GI50 (HS 578T breast): 1150 nM | TGI (HS 578T breast): 6.93 µM | GI50 (HT29 colon): 1080 nM | TGI (HT29 colon): 21.7 µM | GI50 (K-562 leukemia): 17.6 µM | TGI (K-562 leukemia): > 100 µM | GI50 (KM12 colon): 2660 nM | TGI (KM12 colon): 96.3 µM | GI50 (LOX IMVI melanoma): 5.49 µM | TGI (LOX IMVI melanoma): 39.1 µM | GI50 (M14 melanoma): 2820 nM | TGI (M14 melanoma): 30.5 µM | GI50 (MALME-3M melanoma): 677 nM | TGI (MALME-3M melanoma): 12.2 µM | GI50 (MCF7 breast): 441 nM | TGI (MCF7 breast): 19.4 µM | GI50 (MDA-MB-231 breast): 3.68 µM | TGI (MDA-MB-231 breast): > 100 µM | GI50 (MDA-MB-435 melanoma): 8.15 µM | TGI (MDA-MB-435 melanoma): 38.1 µM | GI50 (MDA-MB-468 breast): 76.4 nM | TGI (MDA-MB-468 breast): 2090 nM | GI50 (MOLT-4 leukemia): 333 nM | TGI (MOLT-4 leukemia): 2020 nM | GI50 (NCI-H23 lung): 4.35 µM | TGI (NCI-H23 lung): 33.8 µM | GI50 (NCI-H322M lung): 1210 nM | TGI (NCI-H322M lung): 23.3 µM | GI50 (NCI-H460 NSCLC): 668 nM | TGI (NCI-H460 NSCLC): 90.1 µM | GI50 (NCI/ADR-RES ovarian): 8.83 µM | TGI (NCI/ADR-RES ovarian): > 100 µM | GI50 (OVCAR-3 ovarian): 1160 nM | TGI (OVCAR-3 ovarian): 12.2 µM | GI50 (OVCAR-4 ovarian): 787 nM | TGI (OVCAR-4 ovarian): 33.5 µM | GI50 (OVCAR-8 ovarian): 3.85 µM | TGI (OVCAR-8 ovarian): > 100 µM | GI50 (PC-3 prostate): 648 nM | TGI (PC-3 prostate): 18 µM | GI50 (RPMI-8226 leukemia): 657 nM | TGI (RPMI-8226 leukemia): 3.16 µM | GI50 (RXF 393 renal): 82.8 nM | TGI (RXF 393 renal): 650 nM | GI50 (SF-268 CNS): 1820 nM | TGI (SF-268 CNS): 19.9 µM | GI50 (SF-539 CNS): 7.45 µM | TGI (SF-539 CNS): > 100 µM | GI50 (SK-MEL-2 melanoma): 2360 nM | TGI (SK-MEL-2 melanoma): 12.3 µM | GI50 (SK-MEL-28 melanoma): 1590 nM | TGI (SK-MEL-28 melanoma): 19.7 µM | GI50 (SK-MEL-5 melanoma): 2960 nM | TGI (SK-MEL-5 melanoma): 14.7 µM | GI50 (SK-OV-3 ovarian): 680 nM | TGI (SK-OV-3 ovarian): 15.3 µM | GI50 (SN12C renal): 2080 nM | TGI (SN12C renal): > 100 µM | GI50 (SNB-19 CNS): 13.7 µM | TGI (SNB-19 CNS): > 100 µM | GI50 (SR leukemia): 1220 nM | TGI (SR leukemia): 2510 nM | GI50 (T-47D breast): 724 nM | TGI (T-47D breast): 10.2 µM | GI50 (TK-10 renal): 1190 nM | TGI (TK-10 renal): 15.2 µM | GI50 (UACC-257 melanoma): 4.01 µM | TGI (UACC-257 melanoma): 43.9 µM | GI50 (UACC-62 melanoma): 890 nM | TGI (UACC-62 melanoma): 8.77 µM | GI50 (UO-31 renal): 2810 nM | TGI (UO-31 renal): > 100 µM
